“Also recorded” adds a separate entry of the source.
Assays:
[1] = test system: IL-1β production from human PBMCs; experiment: IL-1β ELISA in supernatants of LPS-treated human PBMCs; format: cell-based; settings: 18 hrs
Experimental: The PBMCs were separated from peripheral blood of normal healthy human volunteers. […] Supernatant was harvested after 18 hrs and stored at −70° C. until tested. The quantity of IL-1β and TNF-α present in supernatants was estimated by ELISA (R&D systems, MN, USA) following manufacturer's instruction. A standard curve was obtained by plotting known concentrations of recombinant human IL-1β and TNF-α vs absorbance at 450 nm.
Each data point represents mean+standard deviation (SD) of 3 replicates.

[2] = test system: NF-κB DNA binding activity; experiment: Electrophoresis mobility shift assay (EMSA) of NF-κB DNA binding in RAW 264.7 nuclear extracts; format: cell-based, mouse; settings: RAW 264.7, 2 hrs
Experimental: FIG. 6A and 6B. Inhibition of LPS induced NF-κB activation by HMP. 6A: Nuclear protein lysates of RAW 264.7 cells were prepared after 2 hrs of treatment with LPS (0.5 μg/ml) either alone or with different concentration of HMP. Six μg of nuclear protein was used in DNA binding assay and the total binding reaction was resolved in 5% nondenaturing polyacrylamide gel. The retarded bands are indicated with arrow. Data represent one of three experiments performed separately with similar results. Lane 1, control; 2, LPS (0.5 μg/ml); 3, LPS+HMP (25 μM); 4, HMP (12.5 μM). NS, non specific. 6B: Plot of integrated signal density for each lane in FIG. 6A.
RAW 264.7 cells were treated with either LPS (0.5 μg/ml) alone or with various concentration of HMP for 2 hrs. Thereafter, nuclear extracts were prepared using a modified method (Lahti et al., 2000 294:1188-1194). Briefly, cells were washed once with PBS (pH 7.2) and were suspended in hypotonic buffer A [10 mM HEPES (pH 7.6), 10 mM KCl, 0.1 mM EDTA, 1 mM DTT, 0.5 mM PMSF] for 10 min on ice, and vortexed for 10 sec. Nuclei were pelleted by centrifugation at 12,000 g for 5 minutes. […] Mobility shift of DNA due to binding of NF-κB complex was detected by Phosphor Imager-445 SI (Molecular Dynamics, Amarsham-Pharmacia, NJ, USA).

[3] = test system: Du-145 prostate tumor cells; experiment: MTT-microculture tetrazolium cell viability assay / induction of apoptosis in Du-145; format: cell-based
Experimental: The rhizomes of Alpinia officinarum were purchased from Nuherbs Co. (Oakland, Calif.). Du-145 prostate tumor cells were obtained from the American Type Culture Collection (ATCC). Cells were maintained at 37° C. in an atmosphere of 5% CO2 and grown in Roswell Park Memorial Institute (RPMI) media 1640 (GIBCO/BRL) with 10% fetal bovine serum and with 5% penicillin and streptomycin.
The powdered roots of Alpinia officinarum were extracted with methanol and concentrated under vacuum using rotary evaporation. The dried residue was then partitioned with hexanes, ethyl acetate and 1-butanol successively. The three extracts were subjected to bioassays.
The dried ethyl acetate extract was then chromatographed on a normal phase silica gel column (2.5×30 cm) to perform bioassay-directed fractionation. The extract was first dissolved in methanol and loaded onto the column packing material. The prepared extract was then placed on top of the column and elution was performed using a solvent mixture of chloroform/methanol with an increasing amount of methanol (30:1, 20:1, 10:1, 5:1, 0:100; each 1000 mL). Successive fractions were collected and tested for biological activity. […] This fraction was then rechromatographed on a semipreparative Zorbax Rx-C18 reversed phase HPLC column (9.4 mm×240 mm, 5 μm) purchased from MacMod Analytical (Chadds Ford, Pa.). Compounds were eluted by an isocratic solvent system: 55% A, water with 0.05% formic acid (FA); 45% B, ACN (v/v) at a flow rate of 4 mL/min. The wavelength monitored was 205 nm. Successive fractions (1-3) were collected and sent for biological testing again.
Cellular growth in the presence or absence of experimental agents was determined using the modified method as previously described MTT-microculture tetrazolium assay (World Health Organization (ED.), Medicinal Plants in China, WHO Regional Publications, 1989, 21). Briefly, rapidly growing cells were harvested, counted, and inoculated at the appropriate concentrations (100 μL volume) into 96-well micro-titer plates using a multichannel pipet. After 24 hours, AO-1 to AO-5 were applied in different concentrations to triplicate culture wells, and cultures were incubated for 72 hours at 37° C. MTT ( Sigma, St. Louis, Mo.) was prepared at 2 mg/ml in Phosphate buffered saline (PBS) and 50 μL were added to microculture wells. After 4 hour incubation at 37° C., […] were removed from each well, and 150 μL of 100% DMSO were added to solubilize the MTT-formazan product. After thorough mixing with a mechanical plate mixer, absorbence was measured at 570 nm using a Dynatech microplate reader. […] This assay is based on the reduction of MTT tetrazolium salt to a formazan product by the metabolic activity of live cells and which was measured in a multiwell scanning spectrophotometer. Cell line growth and growth inhibition were expressed in terms of mean absorbance units and following the substraction of mean background absorbance.

## COc1cc(CC/C=C/C(=O)CCc2ccccc2)ccc1O [AO-4, 7-(4″-hydroxy-3″-methoxyphenyl)-1-phenyl-hept-4-en-3-one]
[1]; HMP 6.25 μM + LPS (10 ng/ml)
  IL-1β: 339.21 ± 10.53 pg/mL
[1]; HMP 6.25 μM alone
  IL-1β: 22.12 ± 3.33 pg/mL
[1]; HMP 12.5 μM + LPS (10 ng/ml)
  IL-1β: 113.43 ± 3.81 pg/mL
[1]; HMP 12.5 μM alone
  IL-1β: 24.45 ± 1.03 pg/mL
[1]; HMP 25 μM + LPS (10 ng/ml)
  IL-1β: 77.27 ± 4.6 pg/mL
[1]; HMP 25 μM alone
  IL-1β: 23.28 ± 1.41 pg/mL
[1]; HMP 6.25-25 μM + LPS
  LPS induced secretion of IL-1β (in words): significantly in dose dependent fashion
[2]; HMP 25 μM + LPS (0.5 μg/ml)
  LPS induced NF-κB DNA binding activity (EMSA, in words): marked inhibition
[2]; HMP 12.5 and 25 μM + LPS (0.5 μg/ml)
  relative levels of NF-κB DNA binding activity (EMSA, in words): less in comparison to LPS alone
[3]; Homo sapiens, Du-145 prostate tumor cells, MTT, 72 hours incubation, drug concentration giving 50% inhibition of growth, read-out: IC50 (μM), Effects of Diarylheptanoids on Inducing Apoptosis in DU-145 Cancer Cell Line
  IC50: 12.5 µM
[3]; bioassay-directed fractionation of Alpinia officinarum
  activity in bioassay: inducing apoptosis in Du-145 cancer cell line (in words): some activity; also recorded: most potent

— patent publication US20050215635A1, “Diarylheptanoid compounds and uses thereof” (priority 2004, published 2005)
